Data from patent US20090156563A1, “Glucan Compositions” (priority 2005, published 2009).

Tested on: skin of the forearm
Assay: Determination of skin roughness (DIN 4768ff, profilometry of silicone skin impressions)
Format: in vivo, human
Conditions: 10% glyceryl stearate, 8 hours after application
Method: An aqueous lotion for the treatment of skin roughness is formulated from an aqueous emulsion containing 10% by weight of glyceryl stearate and either 0.005% or 0.05% or 0.5% by weight of β-1,3-scleroglucan (using formulations A-D described further above).
The determination of skin roughness is conducted according to German standard DIN 4768ff. The roughness of the skin is determined by taking silicone-based skin impressions and then measuring the surface profile of the impressions, using computer-aided profilometry. The skin roughness is calculated from the multiple measuring points (100 points per square millimeter). The number of volunteers used is 10. The determination of skin roughness is conducted both prior to application of the test lotion and 8 hours after application of the test lotion. The skin of the forearm is used as the skin test area. For the purpose of comparison, a control experiment is conducted using a placebo containing none of the scleroglucan formulations.

β-1,3-scleroglucan was tested, and the “reduction of skin roughness (relative to untreated skin)” value (lotion with 0.005% by weight β-1,3-scleroglucan (formulations A-D)) was “good reduction” and the “reduction of skin roughness (relative to untreated skin)” value (lotion with 0.05% by weight β-1,3-scleroglucan (formulations A-D)) was “good reduction”.
